Source: patent US11427553B2, “Dihydrooxadiazinones” (Bayer Aktiengesellschaft, priority 2017, dated 2022)

Tests used:
HEL 92.1.7 cells = experiment: Assay 1 cell proliferation measurement, HEL 92.1.7; format: cell-based; conditions: Homo sapiens, Erythroleukemia, read-out: Anti-proliferation IC50 [nM] HEL 92.1.7
CHL-1 cells = experiment: Assay 1 cell proliferation measurement, CHL-1; format: cell-based; conditions: Homo sapiens, Melanoma, read-out: Anti-proliferation IC50 [nM] CHL-1
human full length PDE3B = human full length PDE3B (Homo sapiens (Human), UniProt Q13370); experiment: Assay 5 PDE3B enzyme inhibition (3H-cAMP SPA); format: biochemical; conditions: Sf9 cell extract
Chain of human full length PDE3B (Q13370 whole entry): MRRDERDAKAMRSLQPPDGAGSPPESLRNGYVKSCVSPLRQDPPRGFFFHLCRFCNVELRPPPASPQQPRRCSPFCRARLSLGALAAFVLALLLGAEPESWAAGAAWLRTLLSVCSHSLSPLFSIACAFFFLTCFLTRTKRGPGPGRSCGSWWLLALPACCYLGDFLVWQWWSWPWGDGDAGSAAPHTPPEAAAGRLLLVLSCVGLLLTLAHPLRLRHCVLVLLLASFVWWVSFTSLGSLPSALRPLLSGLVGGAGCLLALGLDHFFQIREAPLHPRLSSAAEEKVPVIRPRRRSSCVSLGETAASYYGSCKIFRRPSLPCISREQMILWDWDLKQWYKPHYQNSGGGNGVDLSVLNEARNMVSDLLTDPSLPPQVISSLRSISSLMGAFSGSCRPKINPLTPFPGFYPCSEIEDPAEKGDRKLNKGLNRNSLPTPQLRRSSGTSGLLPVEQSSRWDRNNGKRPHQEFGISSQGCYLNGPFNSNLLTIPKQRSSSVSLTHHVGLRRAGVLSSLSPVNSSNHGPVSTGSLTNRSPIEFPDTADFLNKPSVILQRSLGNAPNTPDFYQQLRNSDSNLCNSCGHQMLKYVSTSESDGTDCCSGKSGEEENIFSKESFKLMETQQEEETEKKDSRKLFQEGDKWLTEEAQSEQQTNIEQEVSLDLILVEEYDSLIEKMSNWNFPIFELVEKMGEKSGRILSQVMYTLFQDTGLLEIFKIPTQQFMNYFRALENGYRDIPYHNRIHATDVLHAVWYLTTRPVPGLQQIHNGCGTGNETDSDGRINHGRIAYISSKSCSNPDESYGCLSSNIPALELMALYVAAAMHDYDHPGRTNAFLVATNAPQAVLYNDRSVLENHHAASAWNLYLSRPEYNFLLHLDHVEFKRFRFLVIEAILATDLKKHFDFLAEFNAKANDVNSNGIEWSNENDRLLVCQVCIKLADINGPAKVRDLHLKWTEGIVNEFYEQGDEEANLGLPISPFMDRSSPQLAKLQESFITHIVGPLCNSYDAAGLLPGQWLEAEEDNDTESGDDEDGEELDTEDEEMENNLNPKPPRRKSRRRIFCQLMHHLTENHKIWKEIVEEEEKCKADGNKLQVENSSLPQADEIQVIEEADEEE
Procedure, shortened: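 Sf9 cell extract expressing human full-length PDE3B, diluted for linear kinetics (<70% substrate use), in 50 mM Tris/HCl pH 7.5, 8.3 mM MgCl2, 1.7 mM EDTA. [8-3H]cAMP substrate, 60 min at room temperature; stopped with yttrium SPA beads, scintillation counting. IC50 from sigmoidal activity vs log concentration curves.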

[1] = Assay 7 in vivo pharmacokinetics in non-rodents (dogs); parameters: species or system Beagle dogs; conditions: i.v.
Method: Assay 7 In Vivo Pharmacokinetics in Non-Rodents (e.g. Dogs)
For in vivo pharmacokinetic experiments test compounds were administered to non-rodents (e.g. female Beagle dogs) intravenously (i.v.) at doses of 0.1 to 1 mg/kg and intragastrally (i.g.) at doses of 0.3 to 3 mg/kg formulated as solutions using solubilizers such as e.g. PEG400 in well-tolerated amounts and are usually given as short term infusion (15 min).
Blood samples were taken e.g. at 2 min, 8 min, 15 min, 30 min, 45 min, 1 h, 2 h, 4 h, 6 h, 8 h and 24 h after dosing from the vena saphena.
For pharmacokinetics after intragastral administration test compounds were given intragastrally to fasted non-rodents (e.g. dogs). Blood samples were taken e.g. at 5 min, 15 min, 30 min, 45 min, 1 h, 2 h, 4 h, 6 h, 8 h and 24 h after dosing. […] Blood was collected into Lithium-Heparin tubes (Monovetten@, Sarstedt) and centrifuged for 15 min at 3000 rpm. A small aliquot (e.g. 100 μL) from the supernatant (plasma) was taken and precipitated by addition of an aliquot ice cold acetonitrile (e.g. of 400 μL) and frozen at −20° C. over night. Samples were subsequently thawed and centrifuged at 3000 rpm, 4° C. for 20 minutes. Aliquots of the supernatants were taken for analytical testing using an Agilent HPLC-system with LCMS/MS detection. PK parameters were calculated by non-compartmental analysis using a PK calculation software.
PK parameters derived from concentration-time profiles after i.v.: CLplasma: Total plasma clearance of test compound (in L/kg/h); CLblood: Total blood clearance of test compound: CLplasma*Cp/Cb (abbreviation: CLp;) in L/kg/h) with Cp/Cb being the ratio of concentrations in plasma and blood.
PK parameters calculated from concentration time profiles after […].: Cmax: Maximal plasma concentration (in mg/L); Cmaxnorm: Cmax divided by the administered dose (in kg/L); Tmax: Time point at which Cmax was observed (in h). Parameters calculated from both, i.v. and i.g. concentration-time profiles: AUCnorm: Area under the concentration-time curve from t=0 h to infinity (extrapolated) divided by the administered dose (in kg*h/L); AUC(0-tlast)norm: Area under the concentration-time curve from t=0 h to the last time point for which plasma concentrations could be measured divided by the administered dose (in kg*h/L); t1/2: terminal half-life (in h); F: oral bioavailability: AUCnorm after intragastral administration divided by AUCnorm after intravenous administration (in %).

RVH421 cells = experiment: Assay 2 cell proliferation measurement, RVH421; format: cell-based; conditions: Homo sapiens, RVH-421, Melanoma, read-out: Anti-proliferation IC50 [nM] RVH421
Method: Cell Proliferation Measurement
The antiproliferative activity of the compounds of the general formula (I) was examined in vitro in human cancer cells. For this purpose, 500 cells, including HeLa cells, A2058 cells, DU145 cells, HMCB cells, IGR37 cells, NCIH1734 cells, OSRC2 cells, or 750 cells, including CAL51 cells, COL0741 cells, DBTRG05MG cells, DKMG cells, G292CLONEA141B1 cells, GB1 cells, HEL cells, HEL9217 cells, JHUEM1 cells, L3.3 cells, LI7 cells, TE4 cells, or 1000 cells, including 8505C cells, HUT78 cells, NCIH1563 cells, NCIH2122 cells, NCIH2172 cells, RVH421 cells, SKMEL3 cells, or 1500 cells, including C32 cells, HS578T cells, JHOM1 cells, NCIH196 cells, OVKATE cells, were plated in 384-well plates with appropriate growth medium and incubated at 37° C. overnight. After 24 h, the cells on the test plate were treated with the compounds of the general formula (I) as and incubated at 37° C. for 72 h. The compounds were added to the cells by means of an HP D300 digital dispenser in a 10 (or more)-step dilution series. As control, the cells were treated with vehicle (DMSO at 0.3% final concentration). After 72 h, the cells were treated with 20 μl/well of 50% CTG solution in PBS (Promega Cell Titer Glo (catalogue #G755B and G756B)) and incubated at room temperature for 10 min, and luminescence was measured by means of a VICTOR V (Perkin Elmer), in order to determine cell viability at the end of treatment. The percentage effect on cell growth and the IC50 derived therefrom were determined for each test substance using the values from untreated wells (=percent viability). The IC50 values were calculated using a 4-parameter fit.

SMILES	IC50 (HEL 92.1.7 cells) [nM]	IC50 (CHL-1 cells) [nM]	IC50 (human full length PDE3B) [nM]	CLblood dog [1] [mL/min/kg]	IC50 (RVH421 cells) [nM]
O=C1NN=C(c2ccc(-c3ccc(F)cc3)c(C(F)(F)F)c2)CO1 [Example 3, 5-[4′-Fluoro-2-(trifluoromethyl)biphenyl-4-yl]-3,6-dihydro-2H-1,3,4-oxadiazin-2-one]	25	9	197	39.8	
O=C1NN=C(c2ccc(-c3ccc(Cl)cc3)c(C(F)(F)F)c2)CO1 [Example 31, 5-[4′-Chloro-2-(trifluoromethyl)biphenyl-4-yl]-3,6-dihydro-2H-1,3,4-oxadiazin-2-one]	47	28	603	8.17	
C[C@@H]1OC(=O)NN=C1c1ccc(-c2ccc(F)cc2)c(C(F)(F)F)c1 [Example 135, (6S)-5-[4′-Fluoro-2-(trifluoromethyl)biphenyl-4-yl]-6-methyl-3,6-dihydro-2H-1,3,4-oxadiazin-2-one]			50	8.17	140
O=C1NN=C(c2ccc(-c3cnn(C(F)F)c3)c(C(F)(F)F)c2)CO1 [Example 146, 5-{4-[1-(Difluoromethyl)-1H-pyrazol-4-yl]-3-(trifluoromethyl)phenyl}-3,6-dihydro-2H-1,3,4-oxadiazin-2-one]	13	8	80	47.3	47
C[C@@H]1OC(=O)NN=C1c1ccc(-n2ccc(C(F)(F)F)n2)c(C(F)(F)F)c1 [Example 265, (6S)-6-Methyl-5-{3-(trifluoromethyl)-4-[3-(trifluoromethyl)-1H-pyrazol-1-yl]phenyl}-3,6-dihydro-2H-1,3,4-oxadiazin-2-one]					262
